This is an account of results in article PMC12323867 (RSC Medicinal Chemistry, 2025).

Values joined by “and” are separate entries in the source; they are usually repeats but may differ in a detail not shown here. Equal values may be shown once. Read-outs that look alike come from different tables or passages of the source.

For series [1], the target named is T1, LSD1-HDAC1-CoREST complex (Homo sapiens, UniProt O60341).
T1 construct: full length native LSD1 (UniProt ID: O60341); made in house; host or cells: HEK 293F cells (co-transfection, pcDNA3 vectors)
Nature of the series: LSD1 HRP-coupled demethylase assay, SP2509/SP2577 analogues. In kind it is biochemical. As for the experimental part: The analogues synthesised were then tested for their ability to inhibit LSD1 using purified LSD1-HDAC1-CoREST complex (Fig. 2B). We used an established fluorescent read out horseradish peroxidase (HRP) assay to monitor LSD1 enzymatic activity in the CoREST complex[8] (see ESI ^† for full details).
2. Supplementary Information: Biology
2.1. LSD-HDAC1-CoREST expression and purification
Lysis Buffer (Buffer A) Wash Buffer (Buffer B)
• 50 mM Tris/Cl pH 7.5 • 50 mM Tris/Cl pH 7.5
• 50 mM Potassium Acetate • 50 mM Potassium Acetate […]
Cleavage Buffer (Buffer C) Gel Filtration Buffer (Buffer D)
• 50 mM Tris/Cl pH 7.5 Filtered at vacuum.
• 50 mM Potassium Acetate • 50 mM Tris/Cl pH 7.5
• 5 % v/v Glycerol • 50 mM Potassium Acetate
• 0.5 mM tris(2- • 0.5 mM TCEP carboxyethyl)phosphine (TCEP)
The CoREST ternary complex was comprised of full length native LSD1 (UniProt ID: O60341), full length HDAC1 (UniProt ID: Q13547) and N-terminally truncated RCOR1 (86-485aa) (UniProt ID:
Q9UKL0). Protein constructs were cloned into pcDNA3 vector. The RCOR1 constructs contained an N-terminal (His)10(Flag)3 tag followed by a Tev protease cleavage site. The constructs for ternary complex were co-transfected into suspension-grow HEK 293F cells (Thermofisher Scientific) with polyethylenimine (PEI) (Sigma) and harvested after 48 hours. This section of the procedure was carried out as described previously in literature.11,12
Cell pellets from 1.2 L culture were defrosted, and buffer A (30 mL) was added. The solution was sonicated (Soniprep 150) in an beaker of ice using a 9 mm probe at 10 ampules; operated with 10 […]
2.2. SP2509/SP2577 analogues LSD1 HRP-coupled demethylase assay protocol The commercial reagents for the assay were HRP and Amplex® Ultrared, which are available to purchase from ThermoFisher (31490) and Invitrogen (10737474), respectively. HRP was made up to 8 mg/mL stock solution in 1xPBS buffer, divided into 10 µL aliquots, snap-frozen in liquid nitrogen and stored at -80 °C. Amplex® Ultrared was made up to 10 mM solution in DMSO, divided into 20 µL aliquots and wrapped in foil, away from light and stored at -20 °C. For each assay experiment, CoREST complex was diluted to 500 nM in assay buffer (20 mM HEPES pH 7.5 and 50 mM NaCl).
HRP was defrosted by diluting each aliquot in 90 µL 1xPBS solution, making a 0.8 mg/mL solution.
Amplex® Ultrared was made up to 200 µM in assay buffer. HRP and Amplex® Ultrared were pre-mixed before addition to the plate. H3K4Me2 substrate (4 mM in deionised water) was diluted to 300 µM in assay buffer. All stocks were stored on ice during assay preparation.
The assay was carried out using a ‘black well’ 96 well plate (Corning no. 3915) in a reaction volume of 100 μL. The final concentrations in the assay were as follows: 50 nM CoREST complex, 10 μM Amplex® UltraRed, 0.04 mg/mL HRP and 15 μM H3K4Me2 peptide substrate. The final DMSO concentration in each well was 1.1 %. Three wells of each experiments were designated ‘background controls’ and contained 85 μL assay buffer, premixed Amplex® UltraRed and HRP (10 µL) and H3K4Me peptide substrate (300 μM, 5 µL).
A stock solution of inhibitor (1 -5 mM in DMSO) was subjected to an inhibitor dilution series, in Eppendorf tubes, in 100 % DMSO. Each new inhibitor stock (4 μL) was diluted in assay buffer (1 in 75) within a new Eppendorf set with assay buffer (20 mM HEPES pH 7.5 and 50 m M NaCl), ensuring the percentage of DMSO was consistent throughout the series. To each well of interest, Inhibitor in assay buffer (75 μL) was added, and CoREST complex (500 nM, 10 µL) was added thereafter. The plate was placed on a rocker and pre -incubated for 30 mins. To each well, premixed Amplex® UltraRed and HRP (10 µL) was added before H3K4Me 2 peptide substrate in assay buffer solution (300 μM, 5 µL) was added to the wall of the plate. The plate was covered in foil and spun down for one minute before being placed in the plate reader. The final percentage concentration of DMSO in […]

The next series concerns HCT116 cells. Nature of the series: CTG cell viability assay. In kind it is cell-based, human. Particulars: HCT116, CellTiter-Glo, 0.0041-10 uM, 24-48 h (Fig. S3). As for the experimental part:
2.4. CTG cell viability assays
HCT116 cells were seeded onto 96-well plates at a density of 2000 cells/well and allowed 24 h to settle. Cells were then treated with LSD1 inhibitors (0.0041-10 uM) alongside WT, DMSO and cell free control wells for 24-48 h. After this time, plates were equilibrated to RT for 30 mins, then CellTiter-Glo (Promega, G9242) reagent (5 uL/100 uL media) was added. Cells were lysed on an orbital shaker for 10 mins, then incubated at RT for 2 mins to allow luminescence to stabilise, following which luminescence was recorded on a HiDEX Sense microplate reader. To obtained plotted values, luminescence of each tested well was divided by that of the DMSO control, which were plotted against concentration using GraphPad Prism. […] was applied to obtain apparent IC50 values where possible.
Figure S3. Cell viability dose response curves
(1 picture or pasted object on this page, not shown here)
For orientation: In ATP-based viability assays light output follows the ATP content of the culture.

In a further series the test system is LSD1. The following applies: evaluated not part of the CoREST complex; read-out: LSD1 IC50; cited from earlier work.

In general, IC50 refers to the concentration that gives 50% inhibition. On to `C/C(=N\NC(=O)c1cccc(S(=O)(=O)N2CCOCC2)c1)c1cc(Cl)ccc1O` [SP2509, reference compound], for which the IC50 was 54.2 nM in series [1] (LSD1 enzymatic activity, complex 50 nM, HRP assay, SP2509 value is mean of three sets, read-out: LSD1-HDAC1-CoREST IC50); 52 nM and 56 nM and 55 nM in series [1] (per parallel set, each set with SP2509 as reference standard, read-out: IC50 from dose response curves (Figure S1)); 13 nM in the series with LSD1. For the same compound, the “cytotoxic effects in cells” value in the series with HCT116 cells was “significant cytotoxic effects”.
